How the values were obtained:
[1] = tested on: chronic unpredictable stress (CUS) model in rats; experiment: Autonomous movement in CUS model in rats; type: in vivo; details: 7 days
Protocol: (§1) The chronic unpredictable stress model is usually used as a depression model. The experimental method is as follows. Stimulation includes forced swimming (10° C., 6 min), tail clamping (1 cm from the tail tip, 1 min), water deprivation (24 h), fasting (24 h), isolated housing (24 h), tail suspension (1 h), immobility (2 h), high-speed horizontal oscillation (120 times/min, 1 h), foot shock for 45 minutes (mean 1 mA, time course 1 s, once/min). These stressors were randomly scheduled over a one-week period and repeated throughout the 23-day experiment. The non-stress control group was housed under normal conditions. Time: between 9:00 a.m. and 2:00 p.m. Since Day 15, the animals in each group were daily intragastrically administered with the subject medicament and double distilled water based on body weight (blank group and CUS model group) respectively, 60 minutes before the stress. […] Behavior and sleep electroencephalogram analyses were carried out on Day 22-23 of the stress. On Day 21, 60 minutes after the final administration, a sucrose solution intake test was carried out and sleep electroencephalogram was recorded simultaneously. On Day 22, EPM and forced swimming tests were carried out.

[2] = tested on: forced swimming model in mice; experiment: Forced swimming model in mice; type: in vivo
Protocol: A desperate behavior status of human beings may be simulated by an immobility status in a forced swimming model in mice. The mice were put into a cylindrical glass jar (height 20 cm, diameter 10 cm) with a water depth of 15 cm and water temperature of 25±1° C. The mice were allowed to pre-swim for 15 minutes before the experiment, and then were taken out, wiped dry at a warm place, and sent back into cages. In 24 hours, the mice received an intragastric administration; and 60 minutes after the administration, the mice were put into the above-mentioned environment. The accumulative immobility time of the mice in the jar during the 5-minute period of time after six minutes of swimming was measured. A decrease in immobility time was taken as evaluation index.

GSK-3β = GSK-3β (Homo sapiens, UniProt P49841); experiment: GSK-3β activity assay (Z′-LYTE); type: biochemical; details: n = 3; read-out: Mean EC50 in the inhibition of GSK-3β activity
Protocol: The GSK-3β phosphorylation level was determined by using a Z′-LYTE assay (Life Technologies). The assay was performed in a 384-well plate. The wells of the testing plate were divided into blank control wells (without the enzyme), enzyme control wells (without the testing substance), and testing wells (with the enzyme and the testing substance at various concentrations). The inhibition rate of the testing substance is expressed as: inhibition %=(E−S)/(E−B)×100, wherein E is the average emission ratio of enzyme control wells; B is the average emission ratio of blank control wells; S is the emission ratio of the testing sample wells. The median effective concentration of each compound (EC50 μM) was calculated by using the resultant inhibition rate of each sample at various concentrations.

[3] = tested on: chronic unpredictable stress (CUS) model in rats; experiment: Elevated plus-maze (EPM) anxiety test in CUS model in rats; type: in vivo
Protocol: as §1

[4] = tested on: GSK-3β phosphorylation level; experiment: GSK-3β phosphorylation level in mouse brain regions (Western blot); type: in vivo; details: mice
Protocol: ICR mice were intragastrically administered of subject medicaments and vehicle. One hour later, brains of those treated mice were obtained after decapitation. Prefrontal lobe cortex, hipocampus, corpus striatum and hypothalamus were isolated and collected respectively. Then protein electrophoresis (Western blot) was carried out with each sample.

[5] = Serum AST and ALT in mice after 14 days of intragastric administration; type: in vivo; details: mouse, in vivo, 60 mg/kg/day
Protocol: Blood was collected from epicanthal, stood at room temperature for about 2 hours, and centrifuged for 12 minutes at 3000 r/min after coagulation. The serum was removed and centrifuged again. Alanine transaminase (ALT) and aspartate transaminase (AST) levels were determined

[6] = tested on: chronic unpredictable stress (CUS) model in rats; experiment: Sleep electroencephalogram in CUS depression model in rats; type: in vivo
Protocol: The chronic unpredictable stress model is usually used as a depression model. The experimental method is as follows. Stimulation includes forced swimming (10° C., 6 min), tail clamping (1 cm from the tail tip, 1 min), water deprivation (24 h), fasting (24 h), isolated housing (24 h), tail suspension (1 h), immobility (2 h), high-speed horizontal oscillation (120 times/min, 1 h), foot shock for 45 minutes (mean 1 mA, time course 1 s, once/min). These stressors were randomly scheduled over a one-week period and repeated throughout the 23-day experiment. The non-stress control group was housed under normal conditions. Time: between 9:00 a.m. and 2:00 p.m. Since Day 15, the animals in each group were daily intragastrically administered with the subject medicament and double distilled water based on body weight (blank group and CUS model group) respectively, 60 minutes before the stress. Imipramine (intraperitoneally, IP) was adopted as a positive control. Behavior and sleep electroencephalogram analyses were carried out on Day 22-23 of the stress. On Day 21, 60 minutes after the final administration, a sucrose solution intake test was carried out and sleep electroencephalogram was recorded simultaneously. On Day 22, EPM and forced swimming tests were carried out.
Result 3: Sleep disturbance is one of the most common symptoms of neuropsychiatry. From a view of therapeutics, sleep disturbance is one of the most distressful events in patients suffered from nervous diseases and mental illness, especially in depression, and also one of major adverse events that may exacerbate the conditions of nervous disease and mental illness and impede the recovery in patients. For example, patients who are suffering from depression associated with insomnia may have an apparently higher incidence of a suicidal behavior, as compared with a non-insomnia group. Sleep disturbance in nervous and mental diseases can be simulated by using a CUS model in rats. […] Therefore, YH-200 could be useful for treating and ameliorating sleep disturbance in a patient suffering from depression (see, Table 4).

[7] = tested on: chronic unpredictable stress (CUS) model in rats; experiment: Sucrose solution preference in CUS model in rats; type: in vivo; details: 7 days
Protocol: as §1

[8] = Day 0 (baseline, before dosing)

GSK-3β, sequence (P49841 whole entry): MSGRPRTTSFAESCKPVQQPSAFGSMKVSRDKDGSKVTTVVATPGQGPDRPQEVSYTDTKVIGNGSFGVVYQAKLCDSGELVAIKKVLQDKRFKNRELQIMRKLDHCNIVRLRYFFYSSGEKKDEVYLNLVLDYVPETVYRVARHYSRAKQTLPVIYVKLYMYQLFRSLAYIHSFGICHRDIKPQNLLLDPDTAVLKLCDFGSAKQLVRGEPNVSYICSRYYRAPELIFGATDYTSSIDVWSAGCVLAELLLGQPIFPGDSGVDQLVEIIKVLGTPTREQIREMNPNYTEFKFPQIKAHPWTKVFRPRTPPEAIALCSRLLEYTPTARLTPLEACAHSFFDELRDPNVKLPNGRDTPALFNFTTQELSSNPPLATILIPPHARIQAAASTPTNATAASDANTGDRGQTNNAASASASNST

CCOc1c(OC)cc2c3c1Oc1cc4c(cc1OC)CCN(C)C4Cc1ccc(cc1)Oc1cc(ccc1OC)CC3N(C)CC2 (stereo not shown) [Compound 3, 7-ethoxy fangchinoline]
Autonomous movement Distance ([1]; 7.5 mg/kg intragastric daily): 13612.65 ± 792.22^##,$$ mm | Autonomous movement Speed ([1]; 7.5 mg/kg intragastric daily): 45.38 ± 2.64^##,$$ mm/second | Autonomous movement Distance ([1]; 15 mg/kg intragastric daily): 14409.83 ± 664.54^##,$$ mm | Autonomous movement Speed ([1]; 15 mg/kg intragastric daily): 48.03 ± 4.02^##,$$ mm/second | Autonomous movement Distance ([1]; 30 mg/kg intragastric daily): 14636.14 ± 812.31^##,$$ mm | Autonomous movement Speed ([1]; 30 mg/kg intragastric daily): 48.78 ± 5.36^##,$$ mm/second | anti-depression effect with 5-HT1A receptor antagonist pMPPI ([2]; FIG. 2, n=12-15): could be inhibited | reduction of immobility time and extension of immobility latency period with 5-HT2A receptor agonist DOI ([2]; FIG. 4, n=12-15): could be inhibited | EC50 (GSK-3β): 0.86 µM | Percentage of entries into open arms relative to total entries into arms ([3]; 7.5 mg/kg intragastric daily): 57.2 ± 1.8^##,$$ % | Percentage of residence time in open arms ([3]; 7.5 mg/kg intragastric daily): 69.1 ± 2.4^##,$$ % | Percentage of entries into open arms relative to total entries into arms ([3]; 15 mg/kg intragastric daily): 59.7 ± 2.2^##,$$ % | Percentage of residence time in open arms ([3]; 15 mg/kg intragastric daily): 72.3 ± 3.6^##,$$ % | Percentage of entries into open arms relative to total entries into arms ([3]; 30 mg/kg intragastric daily): 60.2 ± 2.0^##,$$ % | Percentage of residence time in open arms ([3]; 30 mg/kg intragastric daily): 71.8 ± 3.2^##,$$ % | p-GSK-3β level ([4]; 30 mg/kg intragastric, 1 h, hypothalamus, versus blank control): evidently increased | influence on phosphorylated GSK-3β (p-GSK-3β) and total-GSK-3β ([4]; 30 mg/kg intragastric, 1 h, prefrontal lobe cortex, hipocampus and corpus striatum): no evident influence | total GSK-3β level ([4]; 60 mg/kg intragastric, 1 h, four brain sections): no influence | p-GSK-3β level ([4]; 60 mg/kg intragastric, 1 h, prefrontal lobe cortex, hipocampus, corpus striatum and hypothalamus): significantly increased | enhancement of GSK-3β phosphorylation level with pMPPI given intraperitoneally 15 minutes before ([4]; FIG. 3, prefrontal lobe cortex, hipocampus, corpus striatum and hypothalamus, n=6): could evidently inhibit | enhancement of GSK-3β phosphorylation level with 5-HT2A receptor agonist DOI ([4]; FIG. 5, prefrontal lobe cortex, hipocampus, corpus striatum and hypothalamus, n=6): inhibited | melting point: 109.5 to 111 °C | ALT [5]: 82.1 ± 16.4 U/L | AST [5]: 102.3 ± 14.5 U/L | AST/ALT [5]: 1.25 ± 0.18 | effect on the sleep disturbance ([6]; 30 mg/kg p.o.): evident amelioration effect | Deep sleep (SWS) Time [6, 8]: 39.31 ± 10.22 min | NREM sleep Time [6, 8]: 174.44 ± 8.35 min | Rapid eye movement (REM) sleep Time [6, 8]: 37.95 ± 6.28 min | Total sleep Time [6, 8]: 212.40 ± 12.65 min | Deep sleep (SWS) Time ([6]; Day 21, 30 mg/kg p.o.): 48.18 ± 13.77 min | NREM sleep Time ([6]; Day 21, 30 mg/kg p.o.): 165.27 ± 7.97 min | Rapid eye movement (REM) sleep Time ([6]; Day 21, 30 mg/kg p.o.): 34.06 ± 1.75 min | Total sleep Time ([6]; Day 21, 30 mg/kg p.o.): 199.33 ± 9.11 min | Sucrose solution preference ([7]; 7.5 mg/kg intragastric daily): 82.3 ± 3.3^##,$$ % | Sucrose solution preference ([7]; 15 mg/kg intragastric daily): 93.6 ± 4.6^##,$$ % | Sucrose solution preference ([7]; 30 mg/kg intragastric daily): 98.1 ± 3.7^##,$$ %

— patent US9169268B2, “Use of 7-alkoxy fangchinoline compounds in preventing, alleviating and/or treating depression” (Peking University, priority 2012, dated 2015)
